One assay relates to Shigella flexneri. The settings on record: Table 11; Shigella flexneri SH-4. The text has this: (§1) The agar-dilution procedure described by the International Collaborative study (ICS) group was used to determine the minimum inhibitory concentrations (MIC's).
A further assay deals with Citrobacter freundii. Conditions: Table 17; 24 hours; Citrobacter freundii CF17.
Source text: as §1

For assay [1], the system named is Streptococcus sp. ATCC 10389. Nature of the assay: Agar-dilution MIC. The assay is classed as cell-based. Conditions: Table 18, 24 hours. The text has this:
The in vitro activity of antibiotic A41030 factors A and B against a number of representative aerobic, gram-positive bacteria, including Streptococcus sp. Group D, has been determined using a standard agar-dilution assay.

≈ marks a conversion by molar mass, not a printed value.

For the compound `NC1C(=O)NC2Cc3ccc(c(Cl)c3)Oc3cc4cc(c3O)Oc3ccc(cc3Cl)C(O)C3NC(=O)C(NC(=O)C4NC(=O)C(NC2=O)c2cc(O)cc(c2)Oc2cc1ccc2O)c1cc(Cl)c(O)c(c1)-c1c(O)cc(O)cc1C(C(=O)O)NC3=O` (stereo not drawn) [A41030 factor A], the MIC (usually the lowest concentration that inhibits growth of the organism) in the assay with Shigella flexneri worked out at 64 µg/mL (≈ 51.9 µM).

Turning to `N[C@H]1C(=O)N[C@@H]2Cc3ccc(c(Cl)c3)Oc3cc4cc(c3O)Oc3ccc(cc3Cl)[C@@H](O)[C@@H]3NC(=O)C(NC(=O)[C@@H]4NC(=O)[C@@H](NC2=O)c2cc(O)cc(c2)Oc2cc1ccc2O)c1ccc(O)c(c1)-c1c(O)cc(O)cc1[C@@H](C(=O)O)NC3=O` [A41030 factor B], the figures for the MIC (against Citrobacter freundii; in assay [1]) were 128 µg/mL (≈ 107 µM) and 0.25 µg/mL (≈ 0.209 µM), respectively.

The values are drawn from US4559323A, “A41030 Antibiotics” (Eli Lilly and Company, priority 1984, dated 1985).
